Test results reported in PubChem BioAssay (NCI).
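Interpolation was linear, between the two tested concentrations surrounding the appropriate level; five concentrations were tested over 48 hours in 96-well plates. GI50 is the concentration that inhibits growth by half. TGI: total growth inhibition.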

Key:
Experiment in all cases: NCI anticancer screen, dose series, 48 h
A498 renal = test system: A498 renal
CAKI-1 renal = test system: CAKI-1 renal
DU-145 prostate = test system: DU-145 prostate
HS 578T breast = test system: HS 578T breast
M14 melanoma = test system: M14 melanoma
MDA-MB-435 = test system: MDA-MB-435
NCI-H226 lung = test system: NCI-H226 lung
RXF 393 renal = test system: RXF 393 renal
SK-MEL-5 melanoma = test system: SK-MEL-5 melanoma
SK-OV-3 ovarian = test system: SK-OV-3 ovarian
TK-10 renal = test system: TK-10 renal
UACC-257 melanoma = test system: UACC-257 melanoma
A549 NSCLC = test system: A549 NSCLC
BT-549 breast = test system: BT-549 breast
CCRF-CEM leukemia = test system: CCRF-CEM leukemia
COLO 205 colon = test system: COLO 205 colon
EKVX NSCLC = test system: EKVX NSCLC
HCC-2998 colon = test system: HCC-2998 colon
HCT-15 colon = test system: HCT-15 colon
HL-60(TB) leukemia = test system: HL-60(TB) leukemia
HOP-62 NSCLC = test system: HOP-62 NSCLC
HOP-92 NSCLC = test system: HOP-92 NSCLC
HT29 colon = test system: HT29 colon
IGROV1 ovarian = test system: IGROV1 ovarian
K-562 leukemia = test system: K-562 leukemia
KM12 colon = test system: KM12 colon
MALME-3M melanoma = test system: MALME-3M melanoma
MCF7 breast = test system: MCF7 breast
MDA-MB-231 breast = test system: MDA-MB-231 breast
MOLT-4 leukemia = test system: MOLT-4 leukemia
NCI-H23 lung = test system: NCI-H23 lung
NCI-H460 lung = test system: NCI-H460 lung
NCI-H522 lung = test system: NCI-H522 lung
NCI/ADR-RES ovarian = test system: NCI/ADR-RES ovarian
OVCAR-3 ovarian = test system: OVCAR-3 ovarian
OVCAR-4 ovarian = test system: OVCAR-4 ovarian
OVCAR-5 ovarian = test system: OVCAR-5 ovarian
OVCAR-8 ovarian = test system: OVCAR-8 ovarian
PC-3 prostate = test system: PC-3 prostate
RPMI-8226 leukemia = test system: RPMI-8226 leukemia
SF-268 CNS = test system: SF-268 CNS
SF-295 CNS = test system: SF-295 CNS
SF-539 CNS = test system: SF-539 CNS
SK-MEL-2 melanoma = test system: SK-MEL-2 melanoma
SK-MEL-28 melanoma = test system: SK-MEL-28 melanoma
SNB-19 CNS = test system: SNB-19 CNS
SR leukemia = test system: SR leukemia
SW-620 colon = test system: SW-620 colon
U251 CNS = test system: U251 CNS
UACC-62 melanoma = test system: UACC-62 melanoma
UO-31 renal = test system: UO-31 renal

N=C(N)c1ccc(-c2ccc(-c3ccc(F)cc3)s2)s1
GI50 (A498 renal): 1.95 µM
TGI (A498 renal): 4.65 µM
GI50 (CAKI-1 renal): 1.68 µM
TGI (CAKI-1 renal): 3.08 µM
GI50 (DU-145 prostate): 1.72 µM
TGI (DU-145 prostate): 3.19 µM
GI50 (HS 578T breast): 2.19 µM
TGI (HS 578T breast): 4.85 µM
GI50 (M14 melanoma): 1.89 µM
TGI (M14 melanoma): 3.4 µM
GI50 (MDA-MB-435): 1.59 µM
TGI (MDA-MB-435): 2.93 µM
GI50 (NCI-H226 lung): 14.2 µM
TGI (NCI-H226 lung): 54.2 µM
GI50 (RXF 393 renal): 1.75 µM
TGI (RXF 393 renal): 3.34 µM
GI50 (SK-MEL-5 melanoma): 1.81 µM
TGI (SK-MEL-5 melanoma): 3.2 µM
GI50 (SK-OV-3 ovarian): 1.8 µM
TGI (SK-OV-3 ovarian): 3.57 µM
GI50 (TK-10 renal): 1.72 µM
TGI (TK-10 renal): 3.14 µM
GI50 (UACC-257 melanoma): 2.19 µM
TGI (UACC-257 melanoma): 4.15 µM

CC(=O)O[C@H]1CC[C@H]2[C@@H]3CCC(C(C)=O)[C@H](C(=O)O)[C@H]3CC[C@]12C (stereo partly drawn)
TGI (A498 renal): > 100 µM
TGI (A549 NSCLC): > 100 µM
TGI (BT-549 breast): > 100 µM
TGI (CAKI-1 renal): > 100 µM
TGI (CCRF-CEM leukemia): > 100 µM
TGI (COLO 205 colon): > 100 µM
TGI (EKVX NSCLC): > 100 µM
TGI (HCC-2998 colon): > 100 µM
TGI (HCT-15 colon): > 100 µM
TGI (HL-60(TB) leukemia): > 100 µM
TGI (HOP-62 NSCLC): > 100 µM
TGI (HOP-92 NSCLC): > 100 µM
TGI (HS 578T breast): > 100 µM
TGI (HT29 colon): > 100 µM
TGI (IGROV1 ovarian): > 100 µM
TGI (K-562 leukemia): > 100 µM
TGI (KM12 colon): > 100 µM
TGI (M14 melanoma): > 100 µM
TGI (MALME-3M melanoma): > 100 µM
TGI (MCF7 breast): > 100 µM
TGI (MDA-MB-231 breast): > 100 µM
TGI (MDA-MB-435): > 100 µM
TGI (MOLT-4 leukemia): > 100 µM
TGI (NCI-H23 lung): > 100 µM
TGI (NCI-H460 lung): > 100 µM
TGI (NCI-H522 lung): > 100 µM
TGI (NCI/ADR-RES ovarian): > 100 µM
TGI (OVCAR-3 ovarian): > 100 µM
TGI (OVCAR-4 ovarian): > 100 µM
TGI (OVCAR-5 ovarian): > 100 µM
TGI (OVCAR-8 ovarian): > 100 µM
TGI (PC-3 prostate): > 100 µM
TGI (RPMI-8226 leukemia): > 100 µM
TGI (RXF 393 renal): > 100 µM
TGI (SF-268 CNS): > 100 µM
TGI (SF-295 CNS): > 100 µM
TGI (SF-539 CNS): > 100 µM
TGI (SK-MEL-2 melanoma): > 100 µM
TGI (SK-MEL-28 melanoma): > 100 µM
TGI (SK-MEL-5 melanoma): > 100 µM
TGI (SK-OV-3 ovarian): > 100 µM
TGI (SNB-19 CNS): > 100 µM
TGI (SR leukemia): > 100 µM
TGI (SW-620 colon): > 100 µM
TGI (TK-10 renal): > 100 µM
TGI (U251 CNS): > 100 µM
TGI (UACC-257 melanoma): > 100 µM
TGI (UACC-62 melanoma): > 100 µM
TGI (UO-31 renal): > 100 µM
